Experimental data as given in US20230302164A1, “PSMA-Targeting Ligands With Optimal Properties for Imaging and Therapy” (Wisconsin Alumni Research Foundation, priority 2021, published 2023).
pIC50: −log10 of the molar value. Read-outs that look alike come from different tables or passages of the source. One block for each compound: values may come before it.

Key:
[1] = target: T1, PSMA (LNCap cells, PSMA positive) (Homo sapiens, UniProt Q04609); test: Competitive binding assay in LNCap cells using 86Y as a radioligand; conditions: 86Y radioligand, read-out: half inhibition concentration (IC50)
T1 construct: endogenous in cells; host or cells: LNCap cells (human prostate adenocarcinoma)
T1 sequence (Q04609 whole entry): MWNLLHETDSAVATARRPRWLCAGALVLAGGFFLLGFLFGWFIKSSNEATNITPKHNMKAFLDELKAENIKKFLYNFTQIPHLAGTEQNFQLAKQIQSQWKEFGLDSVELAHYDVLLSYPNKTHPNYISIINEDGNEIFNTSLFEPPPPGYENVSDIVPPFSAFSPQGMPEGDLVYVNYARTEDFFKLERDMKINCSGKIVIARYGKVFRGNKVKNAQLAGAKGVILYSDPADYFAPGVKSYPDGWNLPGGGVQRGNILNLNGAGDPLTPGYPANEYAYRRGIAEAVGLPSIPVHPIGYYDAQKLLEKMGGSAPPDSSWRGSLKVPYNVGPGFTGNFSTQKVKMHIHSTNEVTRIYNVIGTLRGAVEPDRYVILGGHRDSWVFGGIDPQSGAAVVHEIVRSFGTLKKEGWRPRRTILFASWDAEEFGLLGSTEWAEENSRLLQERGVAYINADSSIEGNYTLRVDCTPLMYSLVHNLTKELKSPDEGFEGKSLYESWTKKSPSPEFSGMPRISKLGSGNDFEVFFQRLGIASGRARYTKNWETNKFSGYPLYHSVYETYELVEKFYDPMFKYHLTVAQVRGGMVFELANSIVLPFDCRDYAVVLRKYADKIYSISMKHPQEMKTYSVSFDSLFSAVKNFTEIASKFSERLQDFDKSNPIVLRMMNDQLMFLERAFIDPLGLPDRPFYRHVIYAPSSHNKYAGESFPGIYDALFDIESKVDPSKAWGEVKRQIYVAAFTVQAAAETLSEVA
Experimental: Competitive binding assays were performed in LNCap cells (PSMA positive, androgen-sensitive human prostate adenocarcinoma cells) using ^86Y as a radioligand.

PC3-PIP tumor xenografts [2] = test: Ex vivo biodistribution in PC3-PIP mice after last imaging timepoint; conditions: 24 h p.i. (617, C12) or 72 h p.i. (PhC18)
Experimental: Next, an ex vivo biodistribution analysis was performed following the last imaging timepoint at 24 h p.i. for PC3-PIP mice injected intravenously with ^86Y-PSMA-617 and ^86Y-PSMA-C12 and at 72 h p.i. in mice administered ^86Y-PSMA-PhC18.

[3] = PET/CT imaging in normal ICR mice, blood kinetics by region of interest analysis of the heart; format: in vivo; conditions: i.v., PET days 0-2
Experimental: Compounds PSMA-C12 and PSMA-PhC18 were dissolved in water at a concentration of 1-2 mg/mL. Radiolabeling with Y-86 was carried out in NaOAc buffer (pH 5.0) at 90-95 C for 30 min to 1 h at constant stirring. Ten micrograms of compound per mCi of ^86Y were employed, affording quantitative radiochemical yields. Purification of the compounds was carried out using reverse-phase solid-phase chromatography and purified compounds were redissolved in physiological injection media (e.g., normal saline). Quality control was conducted using reverse-phase HPLC.
In PET/CT imaging studies, 100-250 µCi of ^86Y-PSMA-C12 and ^86Y-PSMA-PhC18 were intravenously administered into normal ICR mice, and mice were scanned on days 0, 1, and 2 after injection. The results are shown in FIG. 1 (for ^86Y-PSMA-C12) and in FIG. 2 (for ^86Y-PSMA-PhC18). Blood circulation kinetics were analyzed through a region of interest analysis of the heart.
To our knowledge, ^86Y-PSMA-PhC18 is the only PSMA inhibitor showing long circulation without albumin binding, and that has predominantly hepatic excretion. These features have clear advantages over other previously known PSMA ligands for prostate cancer theranostics.

[4] = tested on: LNCap tumor xenografts with lower PSMA expression; test: PET/CT imaging and region of interest analysis in nude mice bearing LNCap tumor xenografts; format: in vivo
Experimental: Next, PET/CT imaging studies were performed in nude mice bearing LNCap tumor xenografts with lower PSMA expression. The mice were injected intravenously with ^86Y-PSMA-617, ^86Y-PSMA-C12, or ^86Y-PSMA-PhC18 and scanned up to 72 h p.i. […] Finally, a region of interest analysis was then performed on the PET/CT images in nude mice bearing LNCap tumor xenografts injected intravenously with ^86Y-PSMA-617, ^86Y-PSMA-C12, or ^86Y-PSMA-PhC18 and scanned up to 72 h post injection.

PC3-PIP tumor xenografts [5] = test: PET/CT imaging and region of interest analysis in nude mice bearing PC3-PIP tumor xenografts; format: in vivo
Experimental: Next, PET/CT imaging studies were performed in nude mice bearing PC3-PIP tumor xenografts ([…] tumors) injected intravenously with ^86Y-PSMA-617, ^86Y-PSMA-C12, or ^86Y-PSMA-PhC18 and scanned up to 72 h post injection.
A region of interest analysis was then performed on the PC3-PIP tumor xenografts injected intravenously with ^86Y-PSMA-617, ^86Y-PSMA-C12, or ^86Y-PSMA-PhC18 and scanned up to 72 h post injection.

[6] = Partition (logP) and distribution (logD) coefficients, hydrophobicity comparison; format: physicochemical; conditions: for LogD: distribution coefficient; for LogD / LogP: 177Lu-labeled compound; for LogP: partition coefficient
[7] = nude mice, i.v., scanned up to 72 h
[8] = nude mice, region of interest analysis

- LogD ([6]; read-out: LogD): -2.9
- LogP ([6]; read-out: LogP): -2.6
Structure (SMILES): O=C(O)CCC(NC(=O)NC(CCCCNC(=O)CCCCCCCCCCCNC(=O)CN1CCN(CC(=O)O)CCN(CC(=O)O)CCN(CC(=O)O)CC1)C(=O)O)C(=O)O (stereo not drawn) [^177Lu-PSMA-C12, metal not drawn]

- hydrophobicity comparison ([6]; 177Lu-labeled compounds compared with each other): two orders of magnitude more hydrophobic
- LogD [6]: -1.2
- LogP [6]: -0.8
Structure (SMILES): O=C(O)CCC(NC(=O)NC(CCCCNC(=O)CCCCCCCCCCCCCCCCCc1ccc(NC(=O)CN2CCN(CC(=O)O)CCN(CC(=O)O)CCN(CC(=O)O)CC2)cc1)C(=O)O)C(=O)O (stereo not drawn) [^177Lu-PSMA-PhC18, metal not drawn]

The next lines start with the compound.

Structure (SMILES): O=C(O)CCC(NC(=O)NC(CCCCNC(=O)CCCCCCCCCCCNC(=O)CN1CCN(CC(=O)O)CCN(CC(=O)O)CCN(CC(=O)O)CC1)C(=O)O)C(=O)O (stereo not drawn) [^86Y-PSMA-C12, metal not drawn]
- pIC50 [1]: 7.24
- tissue with highest uptake in ex vivo biodistribution (PC3-PIP tumor xenografts [2]): the tumor shows the highest uptake of all analysed tissues
- blood circulation [3]: short circulation half-life
- excretion route [3]: renal excretion

Structure (SMILES): O=C(O)CCC(NC(=O)NC(CCCCNC(=O)CCCCCCCCCCCCCCCCCc1ccc(NC(=O)CN2CCN(CC(=O)O)CCN(CC(=O)O)CCN(CC(=O)O)CC2)cc1)C(=O)O)C(=O)O (stereo not drawn) [^86Y-PSMA-PhC18, metal not drawn]
- clearance from normal organs ([4]; nude mice): Steady clearance from normal organs
- tumor uptake and retention versus 86Y-PSMA-617 ([4]; nude mice, PET/CT): significantly improved
- blood circulation [4, 7]: prolonged blood circulation
- renal clearance [4, 7]: minimal renal clearance
- blood circulation half-life [4, 8]: 15.1 h
- time at which tumor uptake plateaued ([4]; p.i.): 24 h
- tumor uptake at 72 h p.i. relative to 86Y-PSMA-617 and 86Y-PSMA-C12 at 24 h p.i. ([4]; region of interest analysis): five times higher
- tumor uptake and retention versus 86Y-PSMA-617 and 86Y-PSMA-C12 (PC3-PIP tumor xenografts [5]; nude mice, i.v., PET/CT): significantly improved
- blood circulation (PC3-PIP tumor xenografts [5]; [7]): prolonged blood circulation
- renal clearance (PC3-PIP tumor xenografts [5]; [7]): minimal renal clearance
- blood circulation half-life (PC3-PIP tumor xenografts [5]; [8]): 11.7 h
- blood circulation half-life (unit not given) (PC3-PIP tumor xenografts [5]; nude mice, region of interest analysis, FIG. 5 legend): 11.7 h
- time at which tumor uptake plateaus (PC3-PIP tumor xenografts [5]; post injection): 24 h
- tissue with highest uptake in ex vivo biodistribution (PC3-PIP tumor xenografts [2]): the tumor shows the highest uptake of all analysed tissues
- blood circulation [3]: prolonged circulation
- excretion route [3]: hepatobiliary excretion

Structure (SMILES): O=C([O-])CN1CCN(CC(=O)[O-])CCN(CC(=O)NCC2CCC(C(=O)N[C@@H](Cc3ccc4ccccc4c3)C(=O)NCCCC[C@H](NC(=O)N[C@@H](CCC(=O)O)C(=O)O)C(=O)O)CC2)CCN(CC(=O)[O-])CC1.[177Lu+3] (stereo partly drawn) [^177Lu-PSMA-617, reference compound]
- LogD [6]: -3.2
- LogP [6]: -2.8
